Assay results: article PMC9820559, “Investigation of the Fuzzy Complex between RSV Nucleoprotein and Phosphoprotein to Optimize an Inhibition Assay by Fluorescence Polarization” (International Journal of Molecular Sciences, 2022)
Ends that are not written are not given here. Peptide text beside a SMILES is read from it. * marks the point of attachment. FITC = O=C1OC2(c3ccc(O)cc3Oc3cc(O)ccc32)c2ccc(NC(=S)*)cc21

Assays:
[1] = Chemical stability of fluorescently labeled P peptides; assay type: physicochemical; conditions: slightly acidic conditions / HPLC purification and FP assay conditions
Description: We started by labeling the pP11 peptide with N-terminally attached BODIPY FL, as described by Shapiro at al.. […] We then produced F11, another labelled peptide P11, by changing the fluorescent label to fluorescein-5-thiourea (FTU) by coupling with fluorescein-5-isothiocyanate (FITC). […] To directly compare FP and NMR data, we made measurements in MES pH 6.5 buffer. Brij-35 detergent (0.01% w/v) was added below its critical micellar concentration (0.11% w/v) to prevent spurious binding of the peptide to the reading plates. […] We tested buffer with and without salt.
Such derivatives were recently described as tags for bioconjugation, but, to our knowledge, not for an FP assay. […] To assess the properties of BODIPY FL as a fluorescent label for P peptides, we produced a new series of eight dicyano BODIPY FL-labeled (BCNn) peptides of variable length (Table 4) and tested them for N-RNA binding.

RSV N-RNA complex = biological target: T1, RSV N-RNA complex (Human respiratory syncytial virus A, UniProt P03418); test: biochemical; assay type: binding; conditions: Kd, Fn peptides 200 nM, Tris pH 8.0 without salt; single site binding model
T1 construct: Full-length N was produced by co-expression with the C-terminal domain of RSV P protein in E. coli BL21(DE3); made in house; host or cells: E. coli BL21(DE3), co-transformed with pET-N and pGEX-P(161–241)
T1 sequence (P03418 whole entry, looked up, the tested form may be a part, one chain of several): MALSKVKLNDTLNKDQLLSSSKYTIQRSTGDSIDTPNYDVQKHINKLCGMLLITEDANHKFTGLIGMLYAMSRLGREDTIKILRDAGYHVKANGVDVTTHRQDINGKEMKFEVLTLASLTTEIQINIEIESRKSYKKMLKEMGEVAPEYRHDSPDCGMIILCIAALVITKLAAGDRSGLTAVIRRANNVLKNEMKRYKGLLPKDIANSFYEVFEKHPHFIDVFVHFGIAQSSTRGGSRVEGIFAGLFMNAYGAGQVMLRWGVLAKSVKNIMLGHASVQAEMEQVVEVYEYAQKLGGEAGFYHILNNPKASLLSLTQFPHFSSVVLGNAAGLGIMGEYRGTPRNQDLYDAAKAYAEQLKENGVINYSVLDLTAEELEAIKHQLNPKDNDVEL
Description: We carried out FP measurements using the fluorescent F11 peptide and N-RNA complex. […] No salt was added to promote high affinity.
We first measured binding of Fn peptides (200 nM) to N-RNA in Tris buffer by FP (Figure 5A,B). […] We fitted the data with ΔFPmax and Kd as parameters.
We therefore measured fluorescein FP in the presence of N-RNA. […] To test if fluorescein binds to the P-binding site on the N-RNA, we carried out a competition experiment with M76 (Figure 6C).
We first performed FP measurements in salt-free Tris pH 8 buffer (Figure 8A). We measured binding curves using 200 nM of fluorescent peptides.
Fluorescence polarization measurements were carried out on a Paradigm Detection Platform (Beckman Coulter, Brea, CA, USA) operating with a microplate reader, a fluorescein detection cartridge (excitation range 485/20 nm, emission range 535/25 nm for both parallel and perpendicular components) and the SpectraMax Pro 6.1 software (Molecular Devices, San Jose, CA, USA). Samples were placed in polystyrene black flat bottom 96-well microplates (Cellstar, Greiner bio-one, Frickenhausen, Germany) with 20 µL final volume in each well. If not stated otherwise, the final concentration of fluorescent ligands was 200 nM. The buffer was either 20 mM MES pH 6.5, salt-free or with 250 mM NaCl, or 20 mM Tris pH 8.0 salt-free or with 100 mM NaCl, supplemented with 0.01% Brij-35. Mixing was done using the corresponding plate reader option. The temperature was set to 20 °C. Data were recorded in top reading mode. Measurements were done in triplicate and after an incubation time of 30 min, if not indicated otherwise. Fluorescence polarization (FP) in mFP units was determined from the parallel (I∥) and perpendicular (I⊥) components of the emitted light according to Equation (4). A grating factor G of 1.2 was determined using 1 nM fluorescein in 1 mM NaOH and assuming a theoretical FP of 27 mFP [48]. Background signal was measured from wells containing only buffer, and the mean value was subtracted from each I∥ and I⊥ component. (4) FP (mP)=1000×(I∥−G∗I⊥)/(I∥+G×I⊥)
We assumed that the measured fluorescence polarization FP is a linear combination of the FP of the fluorescent probe in the absence of N protein (FPmin) and the FP of N-bound fluorescent probe (FPmax), weighted by the molar fraction. The molar fraction x = [P]bound/[P]0 can then be expressed as a ratio of FP differences (Equation (8)). (8) x=(FP−FPmin)/(FPmax−FPmin)=∆FP/∆FPmax
To determine the Kd value of a complex between a fluorescent probe and N protein, a series of samples with constant probe concentration and varying N concentration was measured. FP binding curves were fitted with a single binding site model and a 1:1 stoichiometry.

[2] = biological target: T2, RSV nucleoprotein N-terminal domain NNTD (residues 31–252) (human respiratory syncytial virus, UniProt P03418 31-252); test: fluorescence polarisation; 200 nM F11, NNTD 0.1–120 µM; 20 mM MES pH 6.5, 250 mM NaCl, 0.01% Brij-35; 20 °C; single site model; saturation not reached; conditions: both partners purified
T2 construct: N-terminal domain of human RSV nucleoprotein N, residues 31-252; 15N-labelled for the NMR titration; also called N(31–252); 15N-NNTD; source: E. coli BL21(DE3), pET-N(31–252), purified as described previously [21]
T2 sequence (looked up): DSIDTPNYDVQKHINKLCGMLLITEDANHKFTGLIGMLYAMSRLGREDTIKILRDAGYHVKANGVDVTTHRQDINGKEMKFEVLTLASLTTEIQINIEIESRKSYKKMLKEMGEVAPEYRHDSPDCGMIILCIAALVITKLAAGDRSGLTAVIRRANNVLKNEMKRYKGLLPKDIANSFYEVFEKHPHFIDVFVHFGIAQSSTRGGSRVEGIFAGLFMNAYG

[3] = biological target: T2, RSV nucleoprotein N-terminal domain …; test: fluorescence polarisation; 200 nM F11, NNTD varied; 20 mM MES pH 6.5 without salt, 0.01% Brij-35; 20 °C; single site plus a linear contribution; conditions: both partners purified

Question: For `CC(C)C[C@H](NC(=O)[C@H](CO)NC(=O)[C@H](CC(C)C)NC(=O)[C@H](CC(=O)O)NC(=O)[C@H](CC(N)=O)NC(=O)[C@H](CC(=O)O)NC(=O)[C@H](CO)NC(=O)[C@H](CC(=O)O)NC(=S)Nc1ccc2c(c1)C(=O)OC21c2ccc(O)cc2Oc2cc(O)ccc21)C(=O)N[C@@H](CCC(=O)O)C(=O)N[C@@H](CC(=O)O)C(=O)N[C@@H](Cc1ccccc1)C(=O)O` [F11, ϕ-DS232DNDLS237LEDF-OH] ({FITC}-DSDNDLSLEDF-OH), which chemical stability [1] is on record?
Answer: stable

Question: And the Kd (RSV N-RNA complex)?
Answer: 7.6 ± 0.9 µM

B1: F11 (fluorescein-5-thiourea-labelled RSV P11 peptide) (peptide)
peptide: {FITC}-DSDNDLSLEDF
notes: C-terminal 11 residues of RSV phosphoprotein P; also called F_(11SS); FTU-P11; source: bought P11 peptide (GeneCust), FITC coupled in solution, HPLC purified
Question: What does the source list for B1?
Answer: Kd [2]: 90 ± 15 µM; Kd [3]: 0.6 ± 0.1 µM
